Results taken from ChEMBL document CHEMBL1201862, “PubChem BioAssay data set” (2004).
“And” between values parts separate entries of the source, which are not always exact repeats. Equal values may be shown once. Each block holds one molecule with its values, some of them ahead of it. The source made the active and inactive calls.

How the values were obtained:
[1] = viability loss in CEM21 cells – cell-based, CellTiter-Glo luminescence, cherry-picked, cytotoxicity control for viral fusion inhibitor project, dose response (AID 652042); type: functional;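 further: potency for signal decrease meaning cytotoxicity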
[2] = blockers of HIV-1 ZM109 envelope-driven cell-cell fusion – HeLa effector, CEM target cells, luciferase, cherry-pick, dose response (AID 652058); type: functional, cell-based;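 further: luciferase signal from HIV-1 Env mediated cell-cell fusion of effector and target cells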
[3] = HIV-1 AD8 envelope cell-cell fusion blockers – cherry-pick, dose response (AID 652062); type: functional, cell-based;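 further: luciferase signal from cell-cell fusion driven by HIV-1 clade B AD8 Env; potency is for inhibitors of fusion seen as a drop in luminescence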
[4] = off-target signal loss in HeLa-CEM21 co-culture – HeLa F-luc CTL cells, cherry-picked, counter-screen for HIV-1 Env fusion inhibitor project, dose response (AID 652040); type: functional, cell-based;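 further: potency for signal decrease marking cytotoxic or nonspecific inhibition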
[5] = system: HEK293; assay: EBV LMP1 TES2 canonical NF-kB signalling blockers – cell-based, HEK293, luciferase, cherry-pick, dose response (AID 588343); type: functional; details: Homo sapiens
[6] = HGIII-sPLA2 enzyme inhibition potency – biochemical, QFRET, IC50, dose response (AID 743457);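 further: green fluorescence rise as the enzyme cleaves BODIPY PC-A2 in liposomes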
[7] = biological target: T1, Low molecular weight phosphotyrosine protein phosphatase (Homo sapiens, UniProt P24666); type: functional; details: read-out: IC50_Mean;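 further: Dose-response confirmation assay measuring inhibition of LMPTP enzyme activity by fluorescence intensity read-out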
T1 sequence (P24666 whole entry): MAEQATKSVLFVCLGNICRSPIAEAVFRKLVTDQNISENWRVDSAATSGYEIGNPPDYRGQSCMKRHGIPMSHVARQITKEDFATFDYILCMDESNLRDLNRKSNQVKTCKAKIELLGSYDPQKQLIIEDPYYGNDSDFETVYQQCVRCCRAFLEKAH

[8] = biological target: T2, Probable nicotinate-nucleotide adenylyltransferase (Staphylococcus aureus (strain N315), UniProt P65502); type: functional, Staphylococcus aureus subsp. aureus N315; details: read-out: IC50_Mean;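 on IC50 Mean: confirmatory dose-response retesting of NadD inhibitor hits first found in an ultra-high-throughput screen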
[9] = biological target: T2, Probable nicotinate-nucleotide adenylyltransferase; type: functional, Staphylococcus aureus subsp. aureus N315
[10] = biological target: T3, Nuclear receptor subfamily 0 group B member 1 (Homo sapiens, UniProt P51843); type: functional, cell-based;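 further: HEK293T cells transfected with SF-1 and DAX-1 plus StAR promoter luciferase reporter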
T3 sequence (P51843 whole entry): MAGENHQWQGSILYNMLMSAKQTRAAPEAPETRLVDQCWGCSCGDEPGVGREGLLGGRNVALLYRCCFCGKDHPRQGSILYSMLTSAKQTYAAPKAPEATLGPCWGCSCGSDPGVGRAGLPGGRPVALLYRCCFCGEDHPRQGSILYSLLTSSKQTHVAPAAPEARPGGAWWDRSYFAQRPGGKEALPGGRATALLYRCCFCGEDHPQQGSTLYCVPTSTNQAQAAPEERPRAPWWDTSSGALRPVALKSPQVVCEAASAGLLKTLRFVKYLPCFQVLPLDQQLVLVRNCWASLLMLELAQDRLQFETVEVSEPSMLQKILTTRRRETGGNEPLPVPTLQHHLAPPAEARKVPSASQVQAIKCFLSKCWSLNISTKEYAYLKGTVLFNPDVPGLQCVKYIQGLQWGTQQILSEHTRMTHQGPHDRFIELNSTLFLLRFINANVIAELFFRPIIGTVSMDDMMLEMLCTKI

[11] = cells; type: functional, cell-based
[12] = biological target: T4, Methionyl-tRNA synthetase, putative (Trypanosoma brucei brucei, UniProt Q38C91); type: functional, Trypanosoma brucei brucei strain 927/4 GUTat10.1
T4 sequence (Q38C91 whole entry): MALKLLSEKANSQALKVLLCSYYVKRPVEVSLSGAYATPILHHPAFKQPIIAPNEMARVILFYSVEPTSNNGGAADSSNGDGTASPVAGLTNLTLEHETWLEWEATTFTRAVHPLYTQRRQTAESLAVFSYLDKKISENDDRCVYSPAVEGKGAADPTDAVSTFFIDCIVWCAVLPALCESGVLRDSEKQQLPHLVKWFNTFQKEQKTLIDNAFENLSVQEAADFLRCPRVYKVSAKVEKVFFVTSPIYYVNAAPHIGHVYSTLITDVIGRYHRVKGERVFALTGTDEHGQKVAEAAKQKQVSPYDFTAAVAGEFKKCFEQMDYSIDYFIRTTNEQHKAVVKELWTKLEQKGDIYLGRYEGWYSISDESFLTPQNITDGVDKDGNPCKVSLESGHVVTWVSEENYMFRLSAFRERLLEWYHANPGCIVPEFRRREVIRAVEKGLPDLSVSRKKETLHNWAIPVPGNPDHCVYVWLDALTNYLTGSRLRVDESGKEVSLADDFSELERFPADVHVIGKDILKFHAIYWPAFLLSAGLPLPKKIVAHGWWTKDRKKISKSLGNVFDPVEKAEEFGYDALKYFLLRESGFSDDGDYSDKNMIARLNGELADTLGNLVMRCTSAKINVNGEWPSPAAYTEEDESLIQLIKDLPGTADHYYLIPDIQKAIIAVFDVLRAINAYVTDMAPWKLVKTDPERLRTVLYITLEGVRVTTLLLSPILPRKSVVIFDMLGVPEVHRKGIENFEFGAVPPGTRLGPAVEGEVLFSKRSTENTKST

[13] = biological target: T4, Methionyl-tRNA synthetase, putative; type: functional, Trypanosoma brucei brucei strain 927/4 GUTat10.1; remark: listed apart in the source
[14] = Counterscreen for inhibitors of Trypanosoma brucei methionyl tRNA synthetase (MetRS): Luminescence-based cell-based high throughput dose response assay to identify compounds that are cytotoxic to Jurkat human T lymphocyte cells.; type: functional
[15] = biological target: T5, Scavenger receptor class B member 1 (Mus musculus, UniProt Q61009); assay: mouse SR-BI DiI-HDL transfer blockers – ldlA[mSR-BI] CHO cells, fluorescence plate reader, dry powder, set 9, dose response (AID 623880); type: functional, cell-based
T5 sequence (Q61009 whole entry): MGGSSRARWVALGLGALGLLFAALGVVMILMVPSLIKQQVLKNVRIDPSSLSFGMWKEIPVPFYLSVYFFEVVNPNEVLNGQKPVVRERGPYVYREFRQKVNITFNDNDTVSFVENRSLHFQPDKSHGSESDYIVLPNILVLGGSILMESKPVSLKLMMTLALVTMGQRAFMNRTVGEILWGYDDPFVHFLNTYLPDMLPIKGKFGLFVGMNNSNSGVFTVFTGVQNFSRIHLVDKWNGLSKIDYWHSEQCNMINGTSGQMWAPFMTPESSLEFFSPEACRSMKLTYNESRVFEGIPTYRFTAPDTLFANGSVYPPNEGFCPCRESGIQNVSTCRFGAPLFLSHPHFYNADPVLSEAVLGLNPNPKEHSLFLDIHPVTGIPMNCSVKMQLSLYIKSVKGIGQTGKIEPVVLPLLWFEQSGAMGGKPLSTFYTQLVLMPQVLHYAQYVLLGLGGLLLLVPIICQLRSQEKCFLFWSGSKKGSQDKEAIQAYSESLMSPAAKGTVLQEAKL

[16] = biological target: T5, Scavenger receptor class B member 1; assay: blockers of DiI-HDL lipid transfer via SR-BI – cell-based, ldlA[mSR-BI] CHO, DiI fluorescence, dry powder, set 10, dose response (AID 624029); type: functional
[17] = biological target: T6, Trace amine-associated receptor 1 (Homo sapiens, UniProt Q96RJ0); assay: Fluorescence-based cell-based high throughput dose response assay to identify agonists of the human trace amine associated receptor 1 (TAAR1).; type: functional
T6 sequence (Q96RJ0 whole entry): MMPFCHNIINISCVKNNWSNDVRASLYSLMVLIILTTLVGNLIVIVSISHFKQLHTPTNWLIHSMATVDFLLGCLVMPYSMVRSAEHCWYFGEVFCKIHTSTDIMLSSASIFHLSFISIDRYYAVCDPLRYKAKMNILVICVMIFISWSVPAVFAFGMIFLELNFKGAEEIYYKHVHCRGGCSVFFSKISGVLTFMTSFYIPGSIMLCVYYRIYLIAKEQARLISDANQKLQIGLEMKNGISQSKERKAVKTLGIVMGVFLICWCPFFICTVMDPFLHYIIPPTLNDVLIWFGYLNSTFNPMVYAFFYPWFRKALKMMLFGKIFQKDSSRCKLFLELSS

[18] = cells; type: functional, cell-based; remark: listed apart in the source
[19] = cells; type: functional, cell-based; remark: listed apart in the source
[20] = biological target: T6, Trace amine-associated receptor 1; assay: Counterscreen for agonists of the human trace amine associated receptor 1 (hTAAR1): Fluorescence-based cell-based high throughput dose response assay to identify hTAAR1 agonist that also desensitize TAAR1 receptor response.; type: functional

SMILES: N=c1nc2n(cc1F)C1OC(CO)C(O)C1O2 (configuration not stated)
- AC50 [1]: 17.9 µM (active)
- AC50 [2]: < 0.26 µM (active)
- AC50 [3]: 0.699 µM (active)
- AC50 [4]: < 0.26 µM (active)

SMILES: NC(=S)NN=Cc1nccc2c(C(F)(F)C(F)(F)C(F)(F)F)cccc12
- AC50 [5]: 0.643 µM (active)
- IC50 [6]: 31.9 µM (inactive)

- IC50 [7]: 80 µM (inactive)
- IC50 [8]: 41.2 µM (active)
- IC50 [9]: 19.5 µM (active)
SMILES: COc1ccccc1/C=C/C=N/NC(=O)c1cc(-c2ccco2)[nH]n1

SMILES: Clc1ccc(-c2nc3ccc(Br)cn3c2Cc2ccsc2)cc1
- IC50 [10]: > 67.5 µM (inactive)
- IC50 [11]: > 67.5 µM (inactive)

SMILES: CCC[C@H]1CN(Cc2cccnc2)C(=O)[C@@H]1CC(=O)Nc1ccc(Br)cc1
- IC50 [12]: 3.49 µM (active)
- IC50 [13]: 8.41 µM (active)
- IC50 [14]: 83.3 µM (inactive)

- AC50 [15]: 0.015 µM (active)
- AC50 [16]: 12.1 nM (active)
SMILES: C[C@H](C(=O)NC1CCCC1)N(C(=O)Cn1nnc(-c2ccc3c(c2)OCO3)n1)C1CCCCC1

- AC50 [15]: 0.0589 µM (active)
- AC50 [16]: 163 nM (active) and 121 nM (active)
SMILES: CC(C)NC(=O)Nc1ccc2c(c1)C(=O)N([C@H](C)CO)C[C@@H](C)[C@H](CN(C)S(=O)(=O)c1ccc(Cl)cc1)O2

SMILES: c1ccc(CC/N=C2\CCCc3c2[nH]c2ccccc32)cc1
- EC50 [17]: 0.106 µM (active)
- IC50 [18]: > 29.9 µM (inactive)
- EC50 [19]: > 29.9 µM (inactive)
- IC50 [20]: 0.341 µM (active)
